Data as given in patent publication US20240207336A1, “PURIFIED PS[…] […] ACIDIFIED ACETONE” (PSILO SCIENTIFIC LTD, priority 2021, published 2024).

Assay: oxidation (decay) of psilocin over time, applicant's own data

With CN(C)CCc1c[nH]c2cccc(O)c12 [psilocin] the “decay of psilocin (oxidation)” value (after 5 hours, moist and/or high light environment) was roughly 25%, the “decay of psilocin (oxidation)” value (at 20 hours when shielded from light) was 40-60% and the “decay of psilocin (oxidation)” value (within 30 minutes, moist and/or high light environment) was “about 10%”.
